Measured values published in PubChem BioAssay (NCI).
Where “and” joins values, the source holds several entries; their conditions need not be identical. Identical values can stand only once.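 Growth conditions: 96-well plates. Treatment: test compound, 48 hours, 5 concentrations. Analysis: linear interpolation between bracketing concentrations; unreached endpoints set to highest concentration. The concentration for 50% growth inhibition is given as GI50. Definition used: TGI = concentration required for complete inhibition of growth.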

Columns and labels:
Test in all cases: DTP human tumour cell line panel, 48 h
MCF7 breast = tested on: MCF7 breast
MDA-N = tested on: MDA-N
HOP-18 NSCLC = tested on: HOP-18 NSCLC
M19-MEL melanoma = tested on: M19-MEL melanoma
DLD-1 colon = tested on: DLD-1 colon
RXF-631 renal = tested on: RXF-631 renal
LXFL 529 NSCLC = tested on: LXFL 529 NSCLC
DMS 114 small cell lung = tested on: DMS 114 small cell lung
KM20L2 colon = tested on: KM20L2 colon

SMILES | GI50 (MCF7 breast) | TGI (MCF7 breast) | TGI (HOP-18 NSCLC) | TGI (M19-MEL melanoma) | TGI (DLD-1 colon) | TGI (LXFL 529 NSCLC) | TGI (DMS 114 small cell lung) | TGI (KM20L2 colon) | also measured
CC(=O)Oc1ccc(C2(c3ccc(OC(C)=O)cc3)C(=O)Nc3ccccc32)cc1 | 0.229 µM and 0.278 µM | > 49.3 µM |  |  |  |  |  |  | 
C1=C2CNCC3=Cc4ccc5ccccc5c4OC23Oc2c1ccc1ccccc21 | 2.83 µM | 12.7 µM |  |  |  |  |  |  | 
O=C(O)C1C2C=CC(O2)C1C(=O)Nc1ncccn1 (stereo not drawn) |  | > 100 µM |  |  |  |  |  |  | TGI (MDA-N): > 100 µM
COc1ccc2cc(-c3c(-c4ccncc4)nc(-c4ccc(S(C)=O)cc4C)n3C)ccc2c1 (stereo not drawn) | 14.1 µM | > 25 µM |  |  |  |  |  |  | 
COc1cc([C@H]2c3[nH]c4ccccc4c3C[C@H]3COC(=O)N32)cc(OC)c1O |  | 37.1 µM | > 100 µM | > 100 µM | > 100 µM |  |  |  | 
C/C(=N\n1c(N)c(C#N)c(-c2ccc(Cl)cc2)c(C#N)c1=O)c1ccncc1 | 5.7 µM | 93.9 µM |  |  |  |  |  |  | 
c1ccc(NC[Si]23OCCN(CCO2)CCO3)cc1 |  |  | > 100 µM | > 100 µM | > 100 µM | > 100 µM | > 100 µM |  | TGI (RXF-631 renal): > 100 µM
C/C(=N/O)c1ccc2c(c1)C(=NO)c1cc(/C(C)=N/O)ccc1-2 |  |  | 27.4 µM | 64.8 µM | 52.8 µM | 29 µM | 53.7 µM | 32.3 µM | 
C=CC1=CC(C)C[C@]1(O)C(=O)OC (stereo partly drawn) |  |  | > 100 µM |  |  |  |  | > 100 µM | GI50 (RXF-631 renal): > 100 µM; GI50 (LXFL 529 NSCLC): > 100 µM; GI50 (M19-MEL melanoma): > 100 µM; GI50 (DLD-1 colon): > 100 µM; GI50 (DMS 114 small cell lung): > 100 µM
Cn1cnc([N+](=O)[O-])c1Sc1nc(N)nc2nc[nH]c12 | 2.47 µM | > 100 µM |  |  |  |  |  |  | 
COc1ccc(-c2nc3c(c(=O)n2C(C)=O)C(c2ccc(Cl)cc2)c2sc4c(Cl)cccc4c2O3)cc1 (stereo not drawn) | 0.151 µM | 1.37 µM |  |  |  |  |  |  | 
Cn1cc(CO)c2ccccc21 | 26.9 µM | > 100 µM |  |  |  |  |  |  | 
CC(=O)OCCC(O[Si](c1ccccc1)(c1ccccc1)C(C)(C)C)C(C)(C)O (stereo not drawn) |  |  | 91.4 µM | 57.2 µM |  | > 100 µM | 53.6 µM | > 100 µM | TGI (RXF-631 renal): > 100 µM
CC(=O)[CH-]C(=O)c1ccccc1.CC(=O)[CH-]C(=O)c1ccccc1.[CH2-]CCC.[CH2-]CCC.[Sn+4] |  |  |  | 1.96 µM |  | 0.627 µM |  | 3.94 µM | GI50 (LXFL 529 NSCLC): 0.198 µM; GI50 (M19-MEL melanoma): 0.632 µM; GI50 (KM20L2 colon): 1.99 µM
COc1ccc(/C=C(/C(=O)n2cnnn2)c2cc(OC)c(OC)c(OC)c2)cc1 | 2.63 µM | > 100 µM |  |  |  |  |  |  | 
CC[C@H](C)[C@H](NC(=O)[C@H]1CCCCN1C)C(=O)N(C)[C@H](C[C@@H](OC(C)=O)c1nc(C(=O)N[C@@H](Cc2ccccc2)C[C@H](C)C(=O)OC)cs1)C(C)C |  | > 25 µM |  |  |  |  |  |  | 
Cc1n(Cc2ccc3ccccc3c2)c(Cl)c(Cl)[n+]1Cc1ccc2ccccc2c1 | 1.61 µM | 3.37 µM |  |  |  |  |  |  | 
O=c1[nH]c2cc(Cl)c(Cl)cc2n2cc3ccccc3c12 | 21.4 µM | 39.5 µM |  |  |  |  |  |  | 

SMILES | GI50 (MCF7 breast) | TGI (MCF7 breast) | TGI (HOP-18 NSCLC) | TGI (M19-MEL melanoma) | TGI (DLD-1 colon) | TGI (LXFL 529 NSCLC) | TGI (DMS 114 small cell lung) | TGI (KM20L2 colon) | also measured
C[C@@]12CCCC(=O)N1[C@@H](CO)C(c1ccccc1)O2 (stereo partly drawn) |  |  | > 100 µM | > 100 µM | > 100 µM |  | > 100 µM | > 100 µM | 
CN(C)C/C=C/C(=O)Nc1ccc(C(=O)N2CCC[C@@H](Nc3ncc(Cl)c(-c4c[nH]c5ccccc45)n3)C2)cc1 | 0.0427 µM | 7.16 µM |  |  |  |  |  |  | 
CCC(=O)c1cc([N+](=O)[O-])c(Br)s1 | 2.89 µM | 12.3 µM |  |  |  |  |  |  | 
COc1ccc(C(=O)C[C@]2(O)C(=O)Nc3c(Cl)ccc(Cl)c32)cc1 | 0.383 µM | > 100 µM |  |  |  |  |  |  | 
CN(C)C(=O)SC1=C(c2c(Cl)cccc2Cl)C(=O)c2ccccc21 | 2.51 µM | 7.73 µM |  |  |  |  |  |  | 
Cc1cc([N+](=O)[O-])c(S(=O)(=O)c2ccccc2)c([N+](=O)[O-])c1 |  |  | 29.6 µM | 26.3 µM | 17 µM | 10.6 µM | 9.63 µM | 37.3 µM | TGI (RXF-631 renal): > 100 µM
CC1(C)OC(COCCOCCCCCO)C(COCCOCCCCCO)O1 (stereo not drawn) |  |  | > 100 µM | > 100 µM | > 100 µM | > 100 µM | > 100 µM | > 100 µM | TGI (RXF-631 renal): > 100 µM
Cc1ccccc1NC(=O)C(=O)CC(=O)c1ccc([N+](=O)[O-])cc1 |  |  | > 100 µM | > 100 µM | > 100 µM | > 100 µM | > 100 µM | > 100 µM | TGI (RXF-631 renal): > 100 µM
CN(C)CCCC1(c2ccc(F)cc2)OCc2cc(-c3cncc4ccccc34)ccc21 (stereo not drawn) | 1.89 µM | 4.57 µM |  |  |  |  |  |  | 
COC(=O)c1cc2c3c(ccc2[nH]1)N(C(=O)c1cc2c4c(ccc2[nH]1)N(C(=O)c1cc2c5c(ccc2[nH]1)N(C(N)=O)CC5)CC4)CC3 |  |  | > 100 µM |  | > 100 µM |  | 57.3 µM | > 100 µM | 
O=C(Nc1ccccc1O)c1ccc(CNC(=O)c2ccsc2Nc2ccnc(C(F)(F)F)c2)cc1 | 2.03 µM | 10.4 µM |  |  |  |  |  |  | 
O=C(CCN1CCCC1)Nc1ccc2c(Nc3ccccc3)c3ccccc3nc2c1 | 0.0221 µM | 1.77 µM |  |  |  |  |  |  | 
Cc1ccc(-n2c3c(c4c(CN5CCOCC5)c(O)ccc42)CCc2ccccc2C3=O)cc1 | > 100 µM | > 100 µM |  |  |  |  |  |  | 
NC(=O)c1c[se]c(C2OC(COP(=O)(O)CP(=O)(O)OCC3OC(n4cnc5c(N)ncnc54)C(O)C3O)C(O)C2O)n1 (stereo not drawn) |  |  | > 100 µM | > 100 µM | > 100 µM | > 100 µM | > 100 µM | > 100 µM | 
CC(C)(C)c1cc(CCC(=O)Nc2ccc(Cl)cc2Cl)nc(N)n1 |  |  | > 100 µM | > 100 µM | > 100 µM | > 100 µM | > 100 µM | > 100 µM | TGI (RXF-631 renal): > 100 µM
CCOC(=O)C[C@@]12CCCNC1(C)CCc1ccccc12 (stereo partly drawn) |  |  | > 100 µM | > 100 µM | > 100 µM |  | > 100 µM | > 100 µM | 
Cc1cc(NC(=O)NC(=O)c2ccccc2N(C)C)ccc1Oc1ncc(Br)cn1 |  | 29.2 µM | > 100 µM | > 100 µM | > 100 µM | > 100 µM |  | 0.796 µM | GI50 (LXFL 529 NSCLC): 0.658 µM; TGI (MDA-N): 0.281 µM; GI50 (M19-MEL melanoma): 2.51 µM; GI50 (DLD-1 colon): 0.527 µM; GI50 (DMS 114 small cell lung): 0.478 µM
Cc1ccc(/C=C2\CNC/C(=C\c3ccc(C)cc3)C2=O)cc1 |  | > 100 µM |  | 2.98 µM and 5 µM | 1.2 µM and 2.32 µM | 2.71 µM and 2.17 µM | 4.98 µM | 3.02 µM and 3.14 µM | GI50 (LXFL 529 NSCLC): 0.819 µM; TGI (MDA-N): 3.53 µM; GI50 (M19-MEL melanoma): 2.1 µM; GI50 (DLD-1 colon): 0.916 µM
